These are literature values, as cited in patent US7491312B2, “Identifying therapeutic compounds based on their physical-chemical properties” (Edison Pharmaceuticals, Inc., priority 2002, dated 2009).

This data set addresses amyloid-β fibril formation (Homo sapiens, UniProt P05067). The note with it: compounds with an apomorphine core structure (FIG. 8).

Sequence of amyloid-β fibril formation (P05067 672-711 limits assumed): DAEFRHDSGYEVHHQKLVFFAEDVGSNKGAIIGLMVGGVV

With `COc1ccc2c(c1O)-c1cccc3c1C(C2)N(C)CC3` (centres unmarked) [apocodeine], the “reduction of fibril growth” value is reported as 5%.

Take `CN1CCc2cccc3c2[C@H]1Cc1ccc(O)c(O)c1-3` [apomorphine]: the “reduction of fibril growth” value is listed as 99%.
